This is an account of results in patent US20230320360A1, “FORMULATIONS AND METHODS FOR REGULATING AND STIMULATING PLANT GROWTH” (priority 2020, published 2023).

The subject of the assay is corn fall armyworm (FAW) (Spodoptera frugiperda). Nature of the assay: Field trials, insecticide plus ortho silicic acid against corn fall armyworm. In kind it is in vivo. Also noted: concentration or dose not given beside the values.

Regarding `CNC(=O)c1cc(Cl)cc(C)c1NC(=O)c1cc(Br)nn1-c1ncccc1Cl` [CTPR, Chlorantraniliprole], the “Percent Control (%)” value reads like this: (A01 = 1 day after first spray) 67.6%; (B07 = 7 days after 2nd spray) 86.8%; (B10, after 2nd application) 88.9%; (B21, after 2nd application) 87%.

Orthosilicic acid [OSA]: the “Percent Control (%)” value by setting is: (A01 = 1 day after first spray) 32.4%; (B07 = 7 days after 2nd spray) 58.6%; (B10, after 2nd application) 60.6%; (B21, after 2nd application) 59%.

With `O=C(NC(=O)c1c(F)cccc1F)Nc1ccc(OC(F)(F)C(F)OC(F)(F)F)c(Cl)c1` (stereo not drawn) [Novaluron], the “Percent Control (%)” value runs as follows: (A01 = 1 day after first spray) 60.5%; (B07 = 7 days after 2nd spray) 88.8%; (B10, after 2nd application) 88.9%; (B21, after 2nd application) 84.7%.
